Measured values reported in patent US10722496B2, “2-iminobiotin for use in the treatment of brain cell injury” (Neurophyxia B.V., priority 2015, dated 2020).
Several values for one entry are separate records, joined by “and”; a condition that tells them apart may be missing. Identical values can stand only once.

How the values were obtained:
IMR-32 cells [1] = test: Reactive oxygen species (ROS) measurement, H2DCFDA; assay type: cell-based, human
Experimental: (§1) In vitro hypoxia was induced in the cell cultures by using our recently described system with minor modifications (Huang et al., 2013b; Weber et al., 2015; Zitta et al., 2010). Enzyme stock solutions (100×) of catalase and glucose oxidase (both from Sigma-Aldrich) were prepared in cell culture medium (DMEM/F12, 1% FCS; final concentration: 120 U/ml and 2 U/ml respectively; Sigma-Aldrich) leading to a decrease of partial pressure of oxygen (pO2) below 10 mmHg within 5 minutes. Hypoxic conditions were confirmed by using a tissue oxygen pressure monitor (LICOX® CMP Oxygen Catheter; Integra, Plainsboro, USA). After 7 hours of hypoxia, the cells were washed twice with PBS (PAA) and fresh normoxic medium supplemented with solvent (citrate buffer 1%) or 2-IB (10, 30, 50, 100 and 300 ng/mL) was added to the cells. Investigations of cell damage, metabolic activity, ROS, hydrogen peroxide, nitrite/nitrate production, erkl/2, akt and stat5 phosphorylation as well as cell stress protein expression were performed with cell culture media or cell protein (FIG. 1).
For reactive oxygen species (ROS) measurements, 4×10^4 cells were seeded per well and cultured for 3 days in black walled 96-well plates (Greiner Bio-One, Frickenhausen, Germany). After hypoxia, cells were washed with pre-warmed PBS and cultured in a phenol red-free DMEM/F12 medium (Gibco®-invitrogen, NY, USA) with 1% fetal calf serum (PAA) for 17 hours, supplemented with solvent (citrate 1%) or 2-IB (10, 30, 50, 100, 300 ng/ml). Intracellular ROS were measured by adding 2′7′-dichlorodihydrofluorescein diacetate (H2DCFDA, Sigma-Aldrich) to a final concentration of 10 μM which is oxidized to fluorescent dichlorofluorescein (DCF) by intracellular ROS. DCF-loaded cells were kept in the dark at 37° C. and fluorescence was evaluated at an excitation wavelength of 485 nm and emission wavelength of 535 nm using an ELISA reader (Genios F L; Tecan, Crailsheim, Austria). Fluorescence data were acquired at time points 0 (T0) and 30 minutes (T30) and results were calculated as the increment of fluorescence (%) over time [(T30-T0)/T0×100]. Hydrogen peroxide was measured in the culture medium with a Quanti-Chrom™ Peroxide Assay Kit (Bio-Assay Systems, Hayward, USA), which utilizes the chromogenic Fe3+-xylenol orange reaction, in which a purple complex is formed when Fe2+ provided in the reagent is oxidized to Fe3+ by the hydrogen peroxide present in the sample. Briefly, 100 μl of detection reagent were added to 20 μl of culture medium and measurements were performed based on the manufacturer's protocol. Absorbance of the colorimetric samples and standards was measured at 620 nm using an ELISA reader (Tecan, Crailsheim, Germany).

IMR-32 cells [2] = test: Hydrogen peroxide in culture medium; assay type: cell-based, human; settings: 30 ng/ml 2-IB, data not shown
erkl/2 = test: Western blotting, erkl/2 phosphorylation; assay type: cell-based, human; settings: 30 ng/ml 2-IB
Experimental: as §1, with “Investigations of cell damage, metabolic activity, ROS, hydrogen peroxide, nitrite/nitrate production, erkl/2, akt and stat5 phosphorylation as well as cell stress protein expression were performed with cell culture media or cell protein (FIG. 1).” left out
(§2) Protein extraction was performed using RIPA buffer containing 150 mM sodium chloride, 1% NP-40, 1% sodium deoxycholate, 0.1% sodium dodecyl sulfate (SDS) and 50 mM Tris-HCl buffer (pH 7.6; all from Sigma-Aldrich) or alternatively M-PER buffer (Mammalian Protein Extraction Reagent; Pierce, Ill., USA). Protein concentrations were determined with Roti®-Quant assays (Carl Roth) and samples were stored at −20° C. until use. […] Images were taken and densitometrically analyzed with the software ImageJ (v1.41o, NIH).

stat5 = test: Western blotting, stat5 phosphorylation; assay type: cell-based, human; settings: 30 ng/ml 2-IB
Experimental: as §1, with “Investigations of cell damage, metabolic activity, ROS, hydrogen peroxide, nitrite/nitrate production, erkl/2, akt and stat5 phosphorylation as well as cell stress protein expression were performed with cell culture media or cell protein (FIG. 1).” left out
as §2

IMR-32 cell cultures = test: Hydrogen peroxide after hypoxia under mild hypothermia; assay type: cell-based, human; settings: post-hypoxic application
Experimental: (§3) In-vitro hypoxia was induced for 7 hours using IMR-32 cell cultures. After the hypoxic insult, cultures were subjected to 25 hours of mild hypothermia (33.5° C.) and were incubated with or without 2-IB (10, 30, 50, 100 and 300 ng/ml). Cell morphology was evaluated by brightfield microscopy and cell damage was analyzed by LDH assays. Production of reactive oxygen species (ROS) was measured using fluorometric assays. Western blotting for PARP and phosphorylated as well as unphosphorylated akt and erkl/2 was performed.

PARP, akt and erkl/2 = test: Western blotting for PARP, akt and erkl/2 under mild hypothermia; assay type: cell-based, human; settings: post-hypoxic addition (30 ng/ml)
Experimental: as §3

[3] = Dose prediction simulations from covariate PK models; design: species or system human; Sim. AUCinf when dosing based on Crea0 from Table 6 / Sim. AUCinf when dosing based on eGFR: unit not given here
Experimental: Models were generated in order to determine the impact of dose adjustments and variability of AUC.
[…] and can be easily derived. (D=dose; CL=clearance)
An exploratory covariate analysis was performed looking at body weight, age, eGFR, SeCre, and Core temperature. The model used was as follows:
Dose correction for use at lower temperatures can be determined using the following equation: […]

N=C1N[C@H]2[C@H](CS[C@H]2CCCCC(=O)O)N1 [2-IB, 2-iminobiotin]
ROS increase (T30-T0)/T0×100 (IMR-32 cells [1]; 30 ng/ml 2-IB, hypoxia): 222.00±52.57% | ROS increase (T30-T0)/T0×100 (IMR-32 cells [1]; 30 ng/ml 2-IB, normoxia): 118.93±20.09% | ROS increase (T30-T0)/T0×100 (IMR-32 cells [1]; 50 ng/ml 2-IB, hypoxia): 233.38±53.94% | ROS increase (T30-T0)/T0×100 (IMR-32 cells [1]; 50 ng/ml 2-IB, normoxia): 154.85±30.83% | ROS increase (T30-T0)/T0×100 (IMR-32 cells [1]; 100 ng/ml 2-IB, hypoxia): 246.71±58.94% | ROS increase (T30-T0)/T0×100 (IMR-32 cells [1]; 100 ng/ml 2-IB, normoxia): 128.84±21.94% | ROS increase (T30-T0)/T0×100 (IMR-32 cells [1]; 300 ng/ml 2-IB, hypoxia): 311.57±79.02% | ROS increase (T30-T0)/T0×100 (IMR-32 cells [1]; 300 ng/ml 2-IB, normoxia): 141.20±25.35% | hypoxia-induced generation of ROS, most efficient concentration (IMR-32 cells [1]; 10-300 ng/ml tested): most efficiently attenuated with 50 ng/ml 2-IB | hypoxia-induced release of hydrogen peroxide (IMR-32 cells [2]): did not attenuate the hypoxia-induced release of hydrogen peroxide | phosphorylation of erkl/2 (erkl/2): did not influence | phosphorylation of stat5 (stat5): did not influence | generation of hydrogen peroxide (IMR-32 cell cultures): did not influence generation of hydrogen peroxide | cleavage of PARP, akt and erkl/2 phosphorylation (PARP, akt and erkl/2): did not influence cleavage or phosphorylation of the mentioned molecules | Sim. AUCinf when dosing based on 4.8 mg for all ([3]; Table 8, covariate model with Crea0, individual patient (ID 1-8)): 220 and 292 and 765 and 847 and 642 and 993 and 427 and 266 | Sim. AUCinf when dosing based on Crea0 from Table 6 ([3]; Table 8, individual patient (ID 1-8)): 676 and 494 and 588 and 781 and 692 and 1070 and 722 and 327 | Sim. AUCinf when dosing based on 4.8 mg for all ([3]; Table 10, covariate model with eGFR, individual patient (ID 1-8)): 306 and 302 and 814 and 873 and 484 and 856 and 472 and 269 | Sim. AUCinf when dosing based on 4.8 mg for all ([3]; Table 10, Max of 8 patients): 873 | Sim. AUCinf when dosing based on eGFR ([3]; Table 10, Max of 8 patients): 922 | Sim. AUCinf when dosing based on 4.8 mg for all ([3]; Table 10, Mean of 8 patients): 547 | Sim. AUCinf when dosing based on eGFR ([3]; Table 10, Mean of 8 patients): 679 | Sim. AUCinf when dosing based on 4.8 mg for all ([3]; Table 10, Median of 8 patients): 478 | Sim. AUCinf when dosing based on eGFR ([3]; Table 10, Median of 8 patients): 713 | Sim. AUCinf when dosing based on 4.8 mg for all ([3]; Table 10, Min of 8 patients): 269 | Sim. AUCinf when dosing based on eGFR ([3]; Table 10, Min of 8 patients): 415 | Sim. AUCinf when dosing based on eGFR ([3]; Table 10, individual patient (ID 1-8)): 802 and 465 and 626 and 806 and 596 and 922 and 800 and 415 | CL at 33° relative to the CL at 36° ([3]; given the same Crea0, temperature correction equation): 37%
